The values below come from patent US20090047246A1, “NOVEL INHIBITORS OF HEPATITIS C VIRUS REPLICATION” (InterMune, Inc., priority 2007, published 2009).

The assay deals with T1, HCV NS3 helicase (Hepatitis C virus genotype 1b, UniProt P26663).
T1 construct: full-length NS3 (1-631), purified at Array BioPharma
Put plainly: HCV Helicase Prompt FRET Assay (Example A). Particulars: read-out: IC50 Activity. The class given is biochemical. A digest of the protocol: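 Initial unwinding rates, monitored as FAM fluorescence gain (ex 485, em 535) over ~30 min at room temperature, gave IC50 via 4- or 5-parameter logistic fits. Reactions: 50 nM quenched duplex, 250 nM capture strand, 300 μM ATP, 5–6 nM NS3 1-631 after 5 min compound preincubation, MOPS pH 7.0 buffer, 2% DMSO.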

Where [1] appears, read: HCV NS3 helicase, tables do not say whether Example A or Example B assay.
Where [2] appears, read: Table 34, compounds made using Schemes 51-52.

Like-named read-outs stand apart in the source and are kept apart here. Where only a bound is given, the exact number is not on record here.

T1 sequence (P26663 1027-1657): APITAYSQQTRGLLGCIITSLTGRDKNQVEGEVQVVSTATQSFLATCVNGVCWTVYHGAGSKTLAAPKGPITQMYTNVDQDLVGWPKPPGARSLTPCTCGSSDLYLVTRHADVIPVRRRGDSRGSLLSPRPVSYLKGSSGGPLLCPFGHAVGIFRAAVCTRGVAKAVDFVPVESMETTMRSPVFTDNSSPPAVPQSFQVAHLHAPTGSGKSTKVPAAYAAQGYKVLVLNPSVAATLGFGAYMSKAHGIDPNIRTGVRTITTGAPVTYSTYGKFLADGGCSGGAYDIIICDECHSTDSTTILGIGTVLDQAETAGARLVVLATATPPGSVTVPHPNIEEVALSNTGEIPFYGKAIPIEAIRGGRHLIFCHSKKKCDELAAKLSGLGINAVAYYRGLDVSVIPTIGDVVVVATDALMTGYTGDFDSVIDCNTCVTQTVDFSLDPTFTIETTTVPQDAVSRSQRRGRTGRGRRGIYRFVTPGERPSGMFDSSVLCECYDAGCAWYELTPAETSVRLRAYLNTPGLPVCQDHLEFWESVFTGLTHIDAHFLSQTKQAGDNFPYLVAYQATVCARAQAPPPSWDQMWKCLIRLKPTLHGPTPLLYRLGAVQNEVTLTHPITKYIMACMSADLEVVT

The term IC50 denotes the midpoint of a concentration-inhibition curve. `O=C(O)Cc1c(Cc2cccc(-c3cc(Cl)cc(Cl)c3)c2)oc2ccccc12` [Example 310]: the IC50 under setting [1] was under 10 µM.

In the case of `O=C(O)Cc1cn(Cc2cccc(Oc3cc(Cl)cc(Cl)c3)c2)c2ccccc12` [Example 487], under setting [1], the half-inhibitory concentration (IC50) is under 10 µM.

`Cc1ccc(-c2ccc(C(=O)c3[nH]c4ccccc4c3CC(=O)O)cc2)cc1` [Example 256]: the half-maximal inhibitory concentration (IC50) under setting [1] is 10 to 50 µM.

Turning to `O=C(O)Cc1cn(Cc2cc(-c3ccccc3)no2)c2ccc(Br)cc12` [Example 138], the IC50 under setting [1] lay in the range of 10 to 50 µM.

For the compound `O=C(O)Cc1c(Cc2cccc(-c3ccc(Cl)c(Cl)c3)c2)oc2ccccc12` [Example 309], the 50% inhibitory concentration (IC50) under setting [1] is under 10 µM.

For `Nc1cc(N)cc(-c2ccc3c(CC(=O)NO)cn(Cc4csc5ccc(Cl)cc45)c3c2)c1` [Example 692], under setting [2], the half-inhibitory concentration (IC50) was 10 to 50 µM.

Consider `O=C(O)Cc1c(C(=O)c2ccc(-c3ccccc3Br)cc2)[nH]c2ccccc12` [Example 270], for which the concentration for half-maximal inhibition (IC50) under setting [1] was 10 to 50 µM.

Consider `Cc1ccc2c(Cn3cc(CC(=O)O)c4ccc(-c5cc(N)cc(N)c5)cc43)cccc2n1` [Example 704], for which the IC50 (Table 35, compounds made using Scheme 53) was over 50 µM.

In the case of `Nc1cc(N)cc(-c2ccc3c(CC(=O)O)cn(Cc4csc5cc(Cl)c(F)cc45)c3c2)c1` [Example 723], the concentration for half-maximal inhibition (IC50) (Table 36, compounds made using Scheme 54) is under 10 µM.

Regarding `COC(=O)C(c1ccc([N+](=O)[O-])cc1C)C1CN(c2ccc([N+](=O)[O-])cc2C)c2ccc(Br)cc21` (centres unmarked) [Example 400], the IC50 under setting [1] fell in the range of 10 to 50 µM.

As for `Nc1cc(N)cc(-c2ccc3c(CC(=O)O)cn(Cc4ccccc4)c3c2)c1` [Example 676], under setting [2], the half-inhibitory concentration (IC50) lay within 10 to 50 µM.

For the compound `CCOC(=O)C(O)c1cn(-c2ccc([N+](=O)[O-])cc2C)c2ccc(Br)cc12` (centres unmarked) [Example 394], the IC50 under setting [1] was over 50 µM.

In the case of `O=C(O)Cc1cn(Cc2ccc(Oc3ccc(F)c(F)c3)cc2)c2ccccc12` [Example 505], the IC50 under setting [1] is under 10 µM.

In the case of `O=C(O)Cc1cn(Cc2noc(-c3ccccc3)n2)c2ccc(OCc3ccccc3)cc12` [Example 126], under setting [1], the IC50 lay in the range of 10 to 50 µM.

As for `O=C(O)Cc1cn(Cc2cccc(Cl)c2)c2ccc(Br)cc12` [Example 108], under setting [1], the IC50 was in the range of 10 to 50 µM.

For `CN(C=O)c1cc(Cl)cc2c(Cn3cc(CC(=O)O)c4ccc(-c5cc(N)cc(N)c5)cc43)csc12` [Example 729], the half-inhibitory concentration (IC50) (Table 38, compounds made using Scheme 56, Scheme 57 and Scheme 61) was 10 to 50 µM.

Take `Nc1cc(-c2ccc3c(CC(=O)NS(=O)(=O)C4CC4)cn(Cc4csc5ccc(Cl)cc45)c3c2)cc([N+](=O)[O-])c1` [Example 687]: the 50% inhibitory concentration (IC50) under setting [2] is under 10 µM.

For the compound `N#Cc1ccccc1-c1ccc2c(CC(=O)O)cn(Cc3csc4ccc(Cl)cc34)c2c1` [Example 755], the IC50 (Table 37, compounds made using Scheme 55) was over 50 µM.

In the case of `Nc1cc(N)cc(-c2ccc3c(CC(=O)O)cn(Cc4csc5ccccc45)c3c2)c1` [Example 679], the IC50 under setting [2] is under 10 µM.

With `O=C(O)Cc1cn(Cc2cccc(-c3c[nH]nn3)c2)c2ccc(OCc3ccccc3)cc12` [Example 127], under setting [1], the IC50 lay within 10 to 50 µM.

As to `Cc1cc(NC(=O)Cc2cccs2)ccc1-n1cc(CC(=O)O)c2ccccc21` [Example 157], the IC50 under setting [1] lay within 10 to 50 µM.

As to `C#Cc1ccc2c(CC(=O)O)cn(Cc3csc4ccc(Cl)cc34)c2c1` [Example 364], the concentration for half-maximal inhibition (IC50) under setting [1] was under 10 µM.

`O=C(O)Cc1cn(Cc2cccc(Oc3ccc(F)cc3F)c2)c2ccccc12` [Example 593]: the 50% inhibitory concentration (IC50) (Table 23, compounds made using Scheme 30) is under 10 µM.

Consider `Nc1cc(-c2ccc3c(CC(=O)O)cn(Cc4csc5ccc(Cl)cc45)c3c2)ncn1` [Example 666], for which the IC50 (Table 33, compounds made using Scheme 50) lay in the range of 10 to 50 µM.

With `O=C(O)Cc1cn(Cc2csc3ccc(Cl)cc23)c2cc(-c3ccnc(Cl)c3)ccc12` [Example 740], the half-inhibitory concentration (IC50) under setting [1] lay within 10 to 50 µM.

On to `CC(C)Nc1cc(N)cc(-c2ccc3c(CC(=O)O)cn(Cc4csc5ccc(Cl)cc45)c3c2)c1` [Example 650], for which the half-maximal inhibitory concentration (IC50) (Table 31, compounds made using Schemes 38-45) was under 10 µM.

Take `CC(C)c1ccc(Cn2c(C(=O)NC3CCCCC3)c(CC(=O)O)c3cc(Br)ccc32)cc1` [Example 435]: the half-inhibitory concentration (IC50) under setting [1] lay within 10 to 50 µM.

`CCOC(=O)Cc1cn(Cc2ccc(Oc3cccc(OC)c3)cc2)c2cc(-c3cc(N)cc(N)c3)ccc12` [Example 610]: the IC50 (Table 25, compounds made using Scheme 32) lay in the range of 10 to 50 µM.

As for `CCOC(=O)Cc1cn(Cc2cccc(N(C)c3cc(Cl)ccc3Cl)c2)c2ccccc12` [Example 548], the IC50 under setting [1] is under 10 µM.
